The source of these data is patent US20230203004A1, “RSV INHIBITING 3-SUBSTITUTED QUINOLINE AND CINNOLINE DERIVATIVES” (Janssen Sciences Ireland Unlimited Company, priority 2020, published 2023).

Where two headings read alike, the source gives them in different places.

Data set [1] deals with rgRSV224 virus. Nature of the data set: Antiviral activity: rgRSV224 (GFP) replication in HeLa cells. In kind it is cell-based, respiratory syncytial virus (RSV). Conditions: human respiratory syncytial virus, HeLa. The essentials:
(§1)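 HeLa cells infected with GFP-expressing rgRSV224 at MOI 1 in RPMI/10% FBS, 0.05% DMSO, with 9 serial 4-fold compound dilutions; 3 days at 37 °C, GFP read by laser microscopy for EC50. Cytotoxicity: uninfected HeLa cells, 3 days, cellular ATP (ATPlite) for CC50.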

Data set [2] in a line: Cytotoxicity in HeLa cells (ATP content, ATPlite kit). The format is cell-based. The conditions noted are these: human. In a few lines: as §1
Background: ATP-based viability assays read luminescence as a measure of living cells.

[3] abbreviates: 72 h, read-out: RSV HELA EC50, HeLa cells, rgRSV224 MOI = 1, GFP expression three days post-virus exposure, averaged data of several repeat experiments.

What is called EC50 is the concentration needed to bring the measured effect to its halfway point. As a reminder, the CC50 is the concentration at which the toxic effect on the cells reaches its halfway point. Take `COc1cc(C(=O)NC[C@@](O)(c2cc(C(C)(C)O)c(F)c(-c3ccc(F)cc3)n2)C2CC2(C)C)cc2cc(C)nnc12` (single isomer, unassigned) [compound 295, N-((+)(2,2-dimethylcyclopropyl)(5-fluoro-6-(4-fluorophenyl)-4-(2-hydroxypropanyl)pyridinyl)hydroxyethyl)-8-methoxy-3-methylcinnoline-6-carboxamide]: the EC50 in data set [1] (setting [3]) stood at 0.18 µM. In data set [2] (TOX HELA CC50), the CC50 at 3 days was determined as 12 µM.
As for `COc1cc(C(=O)NC[C@](O)(c2cc(C(C)(C)O)c(Cl)c(-c3ccc(F)cc3)n2)C2CC2)cc2cc(C(F)F)cnc12` [compound 226, (-)-N-{2-[5-Chloro-6-(4-Fluorophenyl)-4-(2-Hydroxypropan-2-yl)Pyridin-2-yl]-2-Cyclopropyl-2-Hydroxyethyl}-3-(Difluoromethyl)-8-Methoxyquinoline-6-Carboxamide], the EC50 in data set [1] (setting [3]) is 0.0024 µM. Besides, in data set [2] (TOX HELA CC50), the CC50 at 3 days was 14 µM.
In the same order, the values of `COc1cc(C(=O)NC[C@](O)(c2nc(-c3ccc(F)cc3)c(F)c(C(C)(C)O)c2F)C(F)(F)F)cc2cc(C)c(F)nc12` [compound 211, (-)-N-{2-[3,5-Difluoro-6-(4-Fluorophenyl)-4-(2-Hydroxypropan-2-yl)Pyridin-2-yl]-3,3,3-Trifluoro-2-Hydroxypropyl}-2-Fluoro-8-Methoxy-3-Methylquinoline-6-Carboxamide] are 0.0028 µM and 29 µM.
As to `COc1cc(C(=O)NCC(O)(c2cc(C(C)(C)O)c(F)c(-c3ccc(F)cc3)n2)[C@@H]2CC2(F)F)cc2cc(C)nnc12` (stereo in doubt) [compound 320, N-((*S)-2,2-Difluorocyclopropyl)-2-(5-Fluoro-6-(4-Fluorophenyl)-4-Hydroxypropan-2-yl)Pyridin-2-yl)-2-Hydroxyethyl)-8-MZthoxy-3-Methylcinnoline-6-Carboxamide], in data set [1] (setting [3]), the EC50 came to 0.001 µM. The molecule further gave a CC50 at 3 days in data set [2] (TOX HELA CC50) of 24 µM.
In the same order, the values of `COc1cc(C(=O)NC[C@](O)(c2cc(C(C)(C)O)c(F)c(-c3ccc(Cl)cc3)n2)C2CC2)cc2cc(C)cnc12` [compound 208, (-)-N-{2-[6-(4-chlorophenyl)-5-fluoro-4-(2-hydroxypropan-2-yl)pyridin-2-yl]-2-cyclopropyl-2-hydroxyethyl}-8-methoxy-3-methylquinoline-6-carboxamide] are 0.001 µM and 14 µM.
`Cc1cnc2c(OC3CC3)cc(C(=O)NC[C@](O)(c3cc(C(C)(C)O)c(F)c(-c4ccc(F)cc4)n3)C3CC3)cc2c1` [compound 223, (-)-N-{2-Cyclopropyl-2-[5-Fluoro-6-(4-Fluorophenyl)-4-(2-Hydroxypropan-2-yl)Pyridin-2-yl]-2-Hydroxyethyl}-8-(Cyclopropyloxy)-3-Methylquinoline-6-Carboxamide]: in data set [1] (setting [3]), the EC50 was determined as 0.00063 µM. The molecule further returned a CC50 at 3 days in data set [2] (TOX HELA CC50) of 21 µM.
In the same order, the values of `Cc1cnc2c(OC3CC3)cc(C(=O)NC[C@](O)(c3cc(C(C)(C)O)c(Cl)c(-c4ccc(F)cc4)n3)C3CC3)cc2c1` [compound 222, (-)-A-{2-[5-Chloro-6-(4-Fluorophenyl)-4-(2-Hydroxypropan-2-yl)Pyridin-2-yl]-2-Cyclopropyl-2-Hydroxyethyl}-8-(Cyclopropyloxy)-3-Methylquinoline-6-Carboxamide] are 0.0015 µM and 27 µM.
In the same order, the values of `COc1cc(C(=O)NC[C@@](O)(c2nc(-c3ccc(F)cc3)cc(C(C)(C)O)c2F)C(F)(F)F)cc2cc(C)nnc12` [compound 280, (+)Methoxy-3-Methyl-N-(3.3.3-Trifluoro-2-(3-Fluoro-6-(4-Fluorophenyl)-4-(2-Hydroxypropan-2-yl)Pyridm-2-yl)-2-Hydroxypropyl)Cinnoline-6-Carboxamide] are 0.449 µM and 9.4 µM.
In the same order, the values of `COc1cc(C(=O)NC[C@](O)(c2cc(C(C)(C)O)c(Cl)c(-c3ccc(F)cc3)n2)C2CC2)cc2cc(C)cnc12` [compound 205, (-)-N-{2-[5-Chloro-6-(4-Fluorophenyl)-4-(2-Hydroxypropan-2-yl)Pyridin-2-yl]-2-Cyclopropyl-2-Hydroxyethyl}-8-Methoxy-3-Methylquinoline-6-Carboxamide] are 0.00081 µM and 32 µM.
With `Cc1cnc2c(OC3CC3)cc(C(=O)NC[C@](O)(c3nc(-c4ccc(F)cc4)c(Cl)c(C(C)(C)O)c3F)C(F)(F)F)cc2c1` [compound 221, (-)-N-{2-[5-Chloro-3-Fluoro-6-(4-Fluorophenyl)-4-(2-Hydroxypropan-2-yl)Pyridin-2-yl]-3,3,3-Trifluoro-2-Hydroxypropyl}-8-(Cyclopropyloxy)-3-Methylquinoline-6-Carboxamide], the EC50 in data set [1] (setting [3]) was found to be 0.0093 µM. This molecule also had a CC50 at 3 days in data set [2] (TOX HELA CC50) of 65 µM.
`Cc1cc2cc(C(=O)NC[C@](O)(c3cc(C(C)(C)O)c(F)c(-c4ccc(F)cc4)n3)C(F)(F)F)cc(OC3CC3)c2nn1` [compound 318, (-)Cyclopropoxy-3-Methyl-N-(3.3.3-Trifluoro-2-(5-Fluoro-6-(4-Fluorophenyl)-4-(2-Hydroxypropan-2-yl)Pyridin-2-yl)-2-Hydroxypropyl)Cinnoline-6-Carboxamide]: the EC50 in data set [1] (setting [3]) turned out to be 0.0014 µM. In data set [2] (TOX HELA CC50), the midpoint of cytotoxicity, the CC50 at 3 days, lay at 22 µM.
In the same order, the values of `Cc1cc2cc(C(=O)NCC(O)(c3cc(C(C)(C)O)c(F)c(-c4ccc(F)cc4)n3)C3CC3)cc(OC(F)F)c2nn1` (single isomer, unassigned; (-)) [compound 260, (-)-N-{2-Cyclopropyl-2-[5-Fluoro-6-(4-Fluorophenyl)-4-(2-Hydroxypropan-2-yl)Pyridin-2-yl]-2-Hydroxyethyl}-8-(Difluoromethoxy)-3-Methylcinnoline-6-Carboxamide] are 0.0016 µM and 19 µM.
In the same order, the values of `COc1cc(C(=O)NC[C@@](O)(c2cc(C(C)(C)O)c(F)c(-c3ccc(F)cc3)n2)C2C[C@H]2F)cc2cc(C)nnc12` (single isomer, unassigned) [compound 303, N-((*R)(5-Fluoro-6-(4-Fluorophenyl)-4-(2-Hydroxypropanyl)Pyridinyl)((l*R, 2*R)Fluorocyclopropyl)Hydroxyethyl)-8-Methoxy-3-Methylcinnoline-6-Carboxamide] are 0.295 µM and 23 µM.
Regarding `COc1cc(C(=O)NC[C@](O)(c2cc(C(C)(C)O)c(F)c(-c3ccc(F)c(C)c3)n2)C(F)(F)F)cc2cc(C)nnc12` [compound 238, (+)Methoxy-3-Methyl-N-{3,3,3-Trifluoro-2-[5-Fluoro-6-(4-Fluoro-3-Methylphenyl)-4-(2-Hydroxypropan-2-yl)Pyridin-2-yl]-2-Hydroxypropyl}Cinnoline-6-Carboxamide], in data set [1] (setting [3]), the EC50 amounted to 0.0029 µM. The molecule further gave a CC50 at 3 days in data set [2] (TOX HELA CC50) of 23 µM.
On the same counts, the results for `COc1cc(C(=O)NC[C@](O)(c2cc(C(C)(C)O)c(F)c(-c3ccc(F)cc3)n2)C(F)(F)F)cc2cc(C)c(F)nc12` [compound 273, (-)Fluoro-8-methoxy-3-methyl-n-(3,3,3-trifluoro(5-fluoro-6-(4-fluorophenyl)-4-(2-hydroxypropanyl)pyridinyl)hydroxypropyl)quinoline-6-carboxamide] are 0.00381 µM and 13 µM.
In the same order, the values of `COc1cc(C(=O)NC[C@](O)(c2cc(C(C)(C)O)c(F)c(-c3ccc(F)cc3)n2)C2(F)CC2)cc2cc(C)nnc12` [compound 296] are 0.002 µM and 56 µM.
On to `COc1cc(C(=O)NC[C@](O)(c2cc(C(C)(C)O)c(F)c(-c3ccc(F)cc3)n2)C2CC2)cc2cc(C3CC3)nnc12` [compound 271, 3-Cyclopropyl-N-{(-)-2-Cyclopropyl-2-[5-Fluoro-6-(4-Fluorophenyl)-4-(2-Hydroxypropan-2-yl)Pyridin-2-yl]-2-Hydroxyethyl)-8-Methoxycinnoline-6-Carboxamide], for which the EC50 turned out to be 0.0015 µM in data set [1] (setting [3]) and 0.0015 µM in data set [1] (comparison table 5.3, antiviral RSV assay of Example 5.1). The CC50 at 3 days in data set [2] (CC50) and in data set [2] (TOX HELA CC50) was 11 µM throughout.
In the case of `COc1cc(C(=O)NC[C@](O)(c2cc(C(C)(C)O)c(F)c(-c3ccc(F)cc3)n2)C2CC2)cc2cc(C(F)(F)F)nnc12` [compound 284], in data set [1] (setting [3]), the EC50 was determined as 0.0048 µM. In data set [2] (TOX HELA CC50), this molecule yielded a CC50 at 3 days of 16 µM.
In the same order, the values of `COc1cc(C(=O)NC[C@](O)(c2cc(C(C)(C)O)cc(-c3ccc(F)cc3)n2)C(C)(F)F)cc2cc(C)nnc12` [compound 309, (-)-N-(3,3-difluoro-2-(6-(4-fluorophenyl)-4-(2-hydroxypropan-2-yl)pyridin-2-yl)-2-hydroxybutyl)-8-methoxy-3-methylcinnoline-6-carboxamide] are 0.011 µM and 34 µM.
In the same order, the values of `COc1cc(C(=O)NC[C@](O)(c2cc(C(C)(C)O)c(F)c(-c3ccc(F)cc3)n2)C2CC2)cc2cc(C3CC3)cnc12` [compound 332, (-)Cyclopropyl-N-(2-Cyclopropyl-2-(5-Fluoro-6-(4-Fluorophenyl)-4-(2-Hydroxypropan-2-yl)Pyridin-2-yl)-2-Hydroxyethyl)-8-Methoxyquinoline-6-Carboxamide] are 0.033 µM and 14 µM.
For `COc1cc(C(=O)NC[C@](O)(c2cc(C(C)(C)NS(C)(=O)=O)c(Cl)c(-c3ccc(F)cc3)n2)C(F)(F)F)cc2cc(C)nnc12` [compound 276, (-)-N-{2-[5-Chloro-6-(4-Fluorophenyl)-4-{2-[(Methanesulfonyl)Amino]Propan-2-yl}Pyridin-2-yl]-3,3,3-Trifluoro-2-Hydroxypropyl}-8-Methoxy-3-Methylcinnoline-6-Carboxamide], in data set [1] (setting [3]), the EC50 was found to be 0.0038 µM. In data set [2] (TOX HELA CC50), this molecule returned a CC50 at 3 days of 51 µM.
